Laboratory results taken from PMC3169401, “Structure of fructose bisphosphate aldolase from Bartonella henselae bound to fructose 1,6-bisphosphate” (Acta Crystallographica Section F: Structural Biology and …, 2011).

Legend:
[1] = biological target: T1, BhFBPA (Bartonella henselae fructose bisphosphate aldolase) (Bartonella henselae, UniProt Q8L207); test: X-ray crystal structure of the complex ([…] A, cocrystallization); type: binding; settings: covalent; Schiff base of C2 of linear FBP with Lys223 at the active site; 10 mM FBP, pH 8.5, 290 K
T1 construct: gene fbab; full length, 343 residues; E. coli BL21(DE3) R3 Rosetta; 39495 Da; homotetramer; residues 1-340 modelled
T1 sequence (Q8L207 1-343): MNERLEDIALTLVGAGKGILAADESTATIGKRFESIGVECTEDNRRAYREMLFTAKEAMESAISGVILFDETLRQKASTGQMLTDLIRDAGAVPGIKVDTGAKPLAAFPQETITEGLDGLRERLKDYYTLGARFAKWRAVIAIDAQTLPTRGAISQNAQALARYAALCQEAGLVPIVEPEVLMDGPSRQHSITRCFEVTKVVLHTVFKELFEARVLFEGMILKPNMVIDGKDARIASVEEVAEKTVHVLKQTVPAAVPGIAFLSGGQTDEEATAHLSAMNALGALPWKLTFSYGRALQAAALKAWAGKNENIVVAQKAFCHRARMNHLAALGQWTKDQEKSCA

[2] = biological target: Bartonella henselae fructose bisphosphate aldolase (Bartonella henselae); test: crystal structure; cocrystallised with 10 mM fructose 1,6-bisphosphate, vapor diffusion at 290 K, 0.2 M sodium acetate, 0.1 M Tris pH 8.5, 30% PEG 4000; four monomers in the asymmetric unit; 2.35 A

Row | Compound | X-ray crystal structure of the complex (2.35 A, cocrystallization) [1] | stoichiometry N [2]
1 | O=P(O)(O)OC[C@H]1OC(O)(COP(=O)(O)O)[C@@H](O)[C@@H]1O (some centres unmarked) [fructose 1,6-bisphosphate] | This structure has clear electron density for FBP bound at the active site | 
2 | Bartonella henselae fructose bisphosphate aldolase (enzyme) |  | 4
